From patent US20080214527A1, “Hiv Integrase Inhibitors” (priority 2005, published 2008)

Legend:
[1] = target: HIV integrase (Human immunodeficiency virus type 1 group M subtype B, UniProt P04585); test: Integrase inhibition assay (substrate DNA/target DNA microtiter plate, OD 405 nm); type: biochemical
Description: The inhibitory activities of the present compounds against integrase were determined by the assay described below.
A substrate DNA solution (2 pmol/μl) and a target DNA solution (5 pmol/μl) were prepared by the same method as that described in Experimental Example 1 of WO 2004/024693. The DNA solutions were heated and then slowly cooled so that they were annealed with each complement. Each sequence of the substrate DNA and the target DNA is the same as described in the Experimental Example.
Streptavidin, obtained from Vector Laboratories, was dissolved in 0.1 M carbonate buffer (composition: 90 mM Na2CO3, 10 mM NaHCO3) at a concentration of 40 μg/ml. After coating each well of microtiter plates (obtained from NUNC) with 50 μl of the above solution at 4° C. over night, each well was washed twice with PBS (composition: […], 0.27 mM KCl, 0.43 mM Na2HPO4, 0.14 mM KH2PO4) and blocked with 300 μl of 1% skim milk in PBS for 30 min. Additionally, each well was washed twice with PBS and added with 50 μl of the substrate DNA solution (2 pmol/μl). The microtiter plates were kept at room temperature for 30 min. Then, each well was washed twice with PBS and once with H2O.
Subsequently, to the each well prepared above were added 51 μl of the reaction buffer prepared from 12 μl of the buffer (composition: 150 mM MOPS (pH 7.2), 75 mM MnCl2, 50 mM 2-mercaptoethanol, 25% glycerol, 500 μg/ml bovine serum albumin-fraction V) and 39 μl of the distilled water. Additionally, 9 μl of an integrase solution (30 pmol) was added thereto and the mixture was mixed well. To the well of negative control (NC) was added 9 μl of the integrase dilution buffer (composition: 20 mM MOPS (pH7.2), 400 mM potassium glutamate, 1 mM EDTA, 0.1% NP-40, 20% glycerol, 1 mM DTT, 4 M urea).
The microtiter plates were incubated at 30° C. for 1 hour. The reaction solution was removed and each well was washed three times with 250 μl of the wash buffer (composition: 150 mM MOPS (pH 7.2), 50 mM 2-mercaptoethanol, 25% glycerol, 500 μg/ml bovine serum albumin-fraction V).
Subsequently, to each well prepared above were added 53 μl of the reaction buffer prepared from 12 μl of the buffer (composition: 150 mM MOPS (pH 7.2), 75 mM MgCl2, 50 mM 2-mercaptoethanol, 25% glycerol, 500 μg/ml bovine serum albumin-fraction V) and 41 μl of the distilled water. Additionally, 6 μl of either a test compound in DMSO or DMSO for positive control (PC) was mixed well. After the microtiter plates were incubated at 30° C. for 30 minutes, 1 μl of target DNA (5 pmol/μl) was added to each well, and the reaction mixture was mixed well.
The microtiter plates were incubated at 30° C. for 10 minutes. The reaction solution was removed and each well was washed twice with PBS. Subsequently, each well of the microtiter plates was filled with 100 μl of anti-digoxigenin antibody labeled with alkaline phosphatase (Sheep Fab fragment: obtained from Boehringer) and incubated at 30° C. for 1 hour. Then, each well was washed twice with 0.05% Tween20 in PBS and once with PBS. Next, 150 μl of the Alkaline phosphatase reaction buffer (composition: 10 mM p-Nitrophenylphosphate (obtained from Vector Laboratories), 5 mM MgCl2, 100 mM NaCl, 100 mM Tris-HCl (pH 9.5)) was added to each well. The microtiter plates were incubated at 30° C. for 2 hours and the reaction was terminated by the addition of 50 μl of 1 N NaOH solution. The optical density (OD) at 405 nm of each well was measured and the percent inhibition was determined by the following expression.
The percent inhibition (%)=100[1−{(C abs.−NC abs.)/(PC abs.−NC abs.)}]
When the percent inhibition (%) is X % at a concentration of ×μg/ml and the percent inhibition (%) is Y % at a concentration of y μg/ml, one of which is more than 50% and the other is less than 50%, IC50 can be determined by the following expression.
IC50(μg/ml)=x−{(X−50)(x−y)/(X−Y)}

[2] = system: HIV-1 (IIIB strain) in MT-4 cells; test: MT4 assay: inhibition of virus-induced CPE in MT-4 cells (MTT method); type: cell-based; conditions: Human immunodeficiency virus 1, MT4, 96 h, 4-day incubation, read-out: anti-HIV activity EC50
Description: MT-4 cells (human T-cell line established by HTLV-I-induced transformation) were cultured in RPMI1640 medium supplemented with 10% fetal calf serum and kanamycin ([…]) in 5% CO2, humidified incubator at 37° C. The stock of HIV-1 was produced as follows. Molt-4 cells persistently infected with HIV-1 (IIIB strain) were cultured for 3 days and culture supernatant was collected. After removal of cells by centrifugation, the supernatant was passed through membrane filter ([…]) and stored as cell-free culture supernatant at −80° C. The infectivity of the stock virus was measured by MTT assay.
Anti-HIV activity in vitro of test compounds was assayed by inhibition of virus-induced CPE in MT-4 cells. MT-4 cells were suspended in culture medium at 2.5×10^5 cells/ml. The cell suspension ([…]) was added to each well of a 96 well flat-bottom microtiter plate containing serial 2-fold dilution of test compounds ([…]). HIV-1 ([…]) was added to each well (4-10 TCID50/well). After 4-day incubation at 37° C., the viability of MT-4 cells was determined by the MTT method using 3-(4,5-dimethylthiazol-2-yl)-2,5-diphenyltetrazolium bromide.
The absorbance (OD) of each well was measured at two wavelengths (560 and 690 nm). All data represent the average values of three wells. The concentration (conc.) achieving 50% protection of HIV replication (EC50) were calculated.

| Compound | melting point | IC50 [1] | EC50 [2] |
| --- | --- | --- | --- |
| Cn1c(=O)c(C(=O)NCCO)c(O)c2ncc(Cc3ccc(F)cc3COC(N)=O)cc21 | 238 to 240 °C |  |  |
| CCNC(=O)OCc1cc(F)ccc1Cc1cnc2c(O)c(C(=O)NCCO)c(=O)n(C)c2c1 | 180 to 182 °C |  |  |
| CCNC(=O)OCc1cc(F)ccc1Cc1cnc2c(O)c(C(=O)NCCOC)c(=O)n(C)c2c1 | 157 to 159 °C |  |  |
| Cn1c(=O)c(C(=O)NCCO)c(O)c2ncc(Cc3ccc(F)cc3OCCN3CCOCC3)cc21 [Example 9, 7-[4-Fluoro-2-(2-morpholin-4-yl-ethoxy)-benzyl]-4-hydroxy-1-methyl-2-oxo-1,2-dihydro-[1,5]naphthyridine-3-carboxylic acid(2-hydroxy-ethyl)-amide] | 161 to 162 °C | < 100 nM | 1 to 100 nM |
| COCC#Cc1cc(F)ccc1Cc1cnc2c(O)c(C(=O)NCCO)c(=O)n(C)c2c1 [Example 13, 7-[4-Fluoro-2-(3-methoxy-prop-1-ynyl)-benzyl]-4-hydroxy-1-methyl-2-oxo-1,2-dihydro-[1,5]naphthyridine-3-carboxylic acid(2-hydroxy-ethyl)-amide] |  | < 100 nM | 1 to 100 nM |
| COCC#Cc1cc(F)ccc1Cc1cnc2c(O)c(C(=O)NCCOC)c(=O)n(C)c2c1 [Example 15, 7-[4-Fluoro-2-(3-methoxy-prop-1-ynyl)-benzyl]-4-hydroxy-1-methyl-2-oxo-1,2-dihydro-[1,5]naphthyridine-3-carboxylic acid(2-methoxy-ethyl)-amide] | 179 to 180 °C | < 100 nM | 1 to 100 nM |
| CC(=O)c1cc(F)ccc1Cc1cnc2c(O)c(C(=O)NCCO)c(=O)n(C)c2c1 [Example 17, 7-(2-Acetyl-4-fluoro-benzyl)-4-hydroxy-1-methyl-2-oxo-1,2-dihydro-[1,5]naphthyridine-3-carboxylic acid(2-hydroxy-ethyl)-amide] | 212 to 215 °C | < 100 nM | 1 to 100 nM |
| COCCNC(=O)c1c(O)c2ncc(Cc3ccc(F)cc3COC(N)=O)cc2n(C)c1=O [Example 22, Carbamic acid 5-fluoro-2-[8-hydroxy-7-(2-methoxy-ethylcarbamoyl)-5-methyl-6-oxo-5,6-dihydro-[1,5]naphthyridin-3-ylmethyl]-benzyl ester] | 180 to 183 °C | < 100 nM | 1 to 100 nM |
| COCc1cc(F)ccc1Cc1cnc2c(O)c(C(=O)NCCO)c(=O)n(C)c2c1 [Example 25, 7-(4-Fluoro-2-methoxymethyl-benzyl)-4-hydroxy-1-methyl-2-oxo-1,2-dihydro-[1,5]naphthyridine-3-carboxylic acid(2-hydroxy-ethyl)-amide] |  | < 100 nM | 1 to 100 nM |
| Cn1c(=O)c(C(=O)NCCO)c(O)c2ncc(Cc3ccc(F)cc3CN3CCCCS3(=O)=O)cc21 [Example 33, 7-[2-(1,1-Dioxo-1lambda*6*-[1,2]thiazinan-2-ylmethyl)-4-fluoro-benzyl]-4-hydroxy-1-methyl-2-oxo-1,2-dihydro-[1,5]naphthyridine-3-carboxylic acid(2-hydroxy-ethyl)-amide] |  | < 100 nM | 1 to 100 nM |
| CN(Cc1cc(F)ccc1Cc1cnc2c(O)c(C(=O)NCCO)c(=O)n(C)c2c1)S(C)(=O)=O [Example 72, 7-{4-Fluoro-2-[(methanesulfonyl-methyl-amino)-methyl]-benzyl}-4-hydroxy-1-methyl-2-oxo-1,2-dihydro-[1,5]naphthyridine-3-carboxylic acid(2-hydroxy-ethyl)-amide] |  | < 100 nM | 1 to 100 nM |
